Counter-ions that a name gives are not always drawn.
Legend:
[1] = system: apomorphine straightening; test: test of antagonism to apomorphine straightening in mice, intraperitoneal (Gouret); assay type: in vivo; settings: Mus musculus, ip, read-out: Apomorphine straightening ED 50
[2] = acute toxicity in mice, intraperitoneal (Miller and Tainter); settings: mouse, in vivo, ip, read-out: Acute toxicity (mice) LD 50
Source text: The acute toxicity was studied in mice intraperitoneally and the lethal doses estimated according to the method described by Miller and Tainter in Proc. Soc. Exper.

## COc1nc(N)ncc1C(=O)NCCNc1ccccc1 [77.0580]
[1]
  ED50: 30 mg/kg
[2]
  LD50: 400 mg/kg

## CCCOc1nc(C)ncc1C(=O)NCC1CCCN1CC (stereo not shown) [compound 780432]
[1]
  ED50: 7.5 mg/kg
[2]
  LD50: 170 mg/kg

## COc1nc(N)ncc1C(=O)NCCN1CCc2ccccc2C1 [77.0862, 1-[5-(2-amino 4-methoxypyrimidinyl)carboxamido] 2-[(tetrahydro 1,2,3,4)isoquinolin-2-yl] ethane]
[1]
  ED50: 30 mg/kg
[2]
  LD50: 300 mg/kg

## CCN(CC)CCNC(=O)c1cnc(N)nc1OC [76.0745]
[1]
  ED50: 30 mg/kg
[2]
  LD50: 650 mg/kg

## CCN1CCCC1CNC(=O)c1cnc(OC)nc1OC (stereo not shown) [77.1243]
[1]
  ED50: 15 mg/kg
[2]
  LD50: 150 mg/kg

## CCCCN1CCCC1CNC(=O)c1cnc(N)nc1OC (stereo not shown) [77.1012]
[1]
  ED50: 7 mg/kg
[2]
  LD50: 110 mg/kg

## COc1nc(C)ncc1C(=O)NCC1CCCN1CC1CCCCC1 (stereo not shown) [compound 780836]
[1]
  ED50: 9 mg/kg
[2]
  LD50: 140 mg/kg

## CCN1CCC[C@H]1CNC(=O)c1cnc(C)nc1OC [compound 780648]
[1]
  ED50: 3.2 mg/kg
[2]
  LD50: 200 mg/kg

## COc1nc(C)ncc1C(=O)NCc1cccn1C [compound 780204]
[1]
  ED50: 50 mg/kg
[2]
  LD50: 400 mg/kg

## CCN(CCNC(=O)c1cnc(N)nc1OC)Cc1ccccc1 [77.0489]
[1]
  ED50: 3 mg/kg
[2]
  LD50: 330 mg/kg

## COc1nc(C)ncc1C(=O)NC1CCN(Cc2ccc(F)cc2)C1 (stereo not shown) [compound 780560]
[1]
  ED50: 3 mg/kg
[2]
  LD50: 100 mg/kg

## COc1nc(C)ncc1C(=O)NC1CCN(Cc2ccccc2)C1 (stereo not shown) [compound 780326]
[1]
  ED50: 5.8 mg/kg
[2]
  LD50: 130 mg/kg

## CCOc1nc(C)ncc1C(=O)NC[C@@H]1CCCN1CC [compound 780905]
[1]
  ED50: 0.88 mg/kg
[2]
  LD50: 175 mg/kg

## CCN1CCCC1CNC(=O)c1cnc(N)nc1OC(C)C (stereo not shown) [77.0871]
[1]
  ED50: 30 mg/kg
[2]
  LD50: 170 mg/kg

## COc1ccccc1N1CCN(CCNC(=O)c2cnc(N)nc2OC)CC1 [76.0994]
[1]
  ED50: 3 mg/kg
[2]
  LD50: 150 mg/kg

## COc1ncncc1C(=O)NC1CCN(Cc2ccccc2)CC1 [77.0886]
[1]
  ED50: 17.5 mg/kg
[2]
  LD50: 125 mg/kg

## CCOc1nc(C)ncc1C(=O)NCC1CCCN1CC (stereo not shown) [compound 780336]
[1]
  ED50: 1.8 mg/kg
[2]
  LD50: 170 mg/kg

## CNc1ncc(C(=O)NC2CCN(Cc3ccccc3)CC2)c(OC)n1 [compound 771261]
[1]
  ED50: 2.4 mg/kg
[2]
  LD50: 70 mg/kg

## CCN1CCCC1CNC(=O)c1cnc(NC)nc1OC (stereo not shown) [compound 771226]
[1]
  ED50: 1.4 mg/kg
[2]
  LD50: 110 mg/kg

## CCCN1CCCC1CNC(=O)c1cnc(C)nc1OC (stereo not shown) [compound 780552]
[1]
  ED50: 12.5 mg/kg
[2]
  LD50: 140 mg/kg

## CCOc1nc(CC)ncc1C(=O)NCC1CCCN1C (stereo not shown) [compound 781021, 4-ethoxy 2-ethyl 5-(1-methylpyrrolidin-2-yl)methylamino carbonyl pyrimidine, fumarate]
[1]
  ED50: 10.5 mg/kg
[2]
  LD50: 115 mg/kg

## CCCN1CCCC1CNC(=O)c1cnc(N)nc1OC (stereo not shown) [compound 771120]
[1]
  ED50: 3.4 mg/kg
[2]
  LD50: 180 mg/kg

## COc1nc(C)ncc1C(=O)NC1CCN(Cc2ccccc2)CC1 [77.0878]
[1]
  ED50: 10 mg/kg
[2]
  LD50: 150 mg/kg

## COc1nc(N)ncc1C(=O)NC1CCN(C2CCCCC2)C1 (stereo not shown) [77.1006]
[1]
  ED50: 3 mg/kg
[2]
  LD50: 175 mg/kg

## CCOc1nc(C)ncc1C(=O)NCCN(CC)Cc1ccccc1 [compound 780656]
[1]
  ED50: 6 mg/kg
[2]
  LD50: 140 mg/kg

## CCN1CCCC1CNC(=O)c1cnc(C)nc1OC (stereo not shown) [77.0805]
[1]
  ED50: 7 mg/kg
[2]
  LD50: 200 mg/kg

## CCN(CCNC(=O)c1cnc(C)nc1OC)Cc1ccc(F)cc1 [compound 780886]
[1]
  ED50: 10 mg/kg
[2]
  LD50: 140 mg/kg

## CCCOc1nc(N)ncc1C(=O)NCC1CCCN1CC (stereo not shown) [77.0621]
[1]
  ED50: 15 mg/kg
[2]
  LD50: 150 mg/kg

## COc1nc(N(C)C)ncc1C(=O)NC1CCN(Cc2ccccc2)CC1 [77.1011]
[1]
  ED50: 2.7 mg/kg
[2]
  LD50: 25 mg/kg

## COc1nc(C)ncc1C(=O)NCCN1CCN(c2ccc(F)cc2)CC1 [compound 780686]
[1]
  ED50: 10 mg/kg
[2]
  LD50: 115 mg/kg

## CCN1CCCC1CNC(=O)c1cnc(N(C)C)nc1OC (stereo not shown) [77.1057]
[1]
  ED50: 1.3 mg/kg
[2]
  LD50: 130 mg/kg

## CCOc1nc(C)ncc1C(=O)NCCN(CC)Cc1ccc(F)cc1 [compound 780887]
[1]
  ED50: 1 mg/kg
[2]
  LD50: 140 mg/kg

## COc1nc(N)ncc1C(=O)NCC1CCCN1Cc1ccccc1 (stereo not shown) [77.0880]
[1]
  ED50: 9 mg/kg
[2]
  LD50: 180 mg/kg

## CCN(CC)CCNC(=O)c1cnc(N(C)C)nc1OC [77.1075]
[1]
  ED50: 16 mg/kg
[2]
  LD50: 200 mg/kg

## COc1nc(C)ncc1C(=O)NCC1CCCN1C (stereo not shown) [compound 780680]
[1]
  ED50: 7.2 mg/kg
[2]
  LD50: 275 mg/kg

## COc1nc(N)ncc1C(=O)N1CC1 [77.1017]
[1]
  ED50: 15 mg/kg
[2]
  LD50: 300 mg/kg

## COc1nc(C)ncc1C(=O)NCCN1CCN(c2ccccc2)CC1 [compound 780522]
[1]
  ED50: 10 mg/kg
[2]
  LD50: 130 mg/kg

## COc1ccccc1N1CCN(CCNC(=O)c2cnc(C)nc2OC)CC1 [compound 780521]
[1]
  ED50: 5.25 mg/kg
[2]
  LD50: 140 mg/kg

## CCN1CCCC1CNC(=O)c1cnc(N)nc1OC (stereo not shown) [76.0843]
[1]
  ED50: 6 mg/kg
[2]
  LD50: 300 mg/kg

## CCN(CC)CCNC(=O)c1cnc(SC)nc1OC [77.0806]
[1]
  ED50: 30 mg/kg
[2]
  LD50: 150 mg/kg

## COc1nc(C)ncc1C(=O)NCC1CCCN1Cc1ccc(F)cc1 (stereo not shown) [compound 780505]
[1]
  ED50: 15 mg/kg
[2]
  LD50: 155 mg/kg

## COc1nc(N)ncc1C(=O)NCC1CCCN1Cc1ccc(F)cc1 (stereo not shown) [77.1047]
[1]
  ED50: 4.5 mg/kg
[2]
  LD50: 130 mg/kg

## CCCc1ncc(C(=O)NCC2CCCN2CC)c(OC)n1 (stereo not shown) [compound 780700]
[1]
  ED50: 17 mg/kg
[2]
  LD50: 200 mg/kg

## C=CCN1CCCC1CNC(=O)c1cnc(C)nc1OC (stereo not shown) [compound 780784]
[1]
  ED50: 5.5 mg/kg
[2]
  LD50: 280 mg/kg

## COc1nc(N)ncc1C(=O)NC1CCN(Cc2ccccc2)CC1 [77.0208]
[1]
  ED50: 3.5 mg/kg
[2]
  LD50: 500 mg/kg

## CCOc1nc(CC)ncc1C(=O)NCC1CCCN1CC (stereo not shown) [compound 781022]
[1]
  ED50: 3 mg/kg
[2]
  LD50: 140 mg/kg

## CCN(CC)CCNC(=O)c1cnc(C)nc1OC [77.0766]
[1]
  ED50: 12 mg/kg
[2]
  LD50: 300 mg/kg

## CCN1CCC[C@H]1CNC(=O)c1cnc(N(C)C)nc1OC [compound 781171]
[1]
  ED50: 3 mg/kg
[2]
  LD50: 100 mg/kg

## CC(C)Oc1nc(N)ncc1C(=O)NC1CCN(Cc2ccccc2)CC1 [77.0872]
[1]
  ED50: 11 mg/kg
[2]
  LD50: 115 mg/kg

## CCOc1nc(N)ncc1C(=O)NCCN(CC)CC [77.0508]
[1]
  ED50: 30 mg/kg
[2]
  LD50: 300 mg/kg

## CCOc1nc(N(C)C)ncc1C(=O)NC[C@@H]1CCCN1CC [compound 781170]
[1]
  ED50: 2.3 mg/kg
[2]
  LD50: 120 mg/kg

## CCOc1nc(C)ncc1C(=O)NCC1CCCN1C (stereo not shown) [compound 781017]
[1]
  ED50: 4.1 mg/kg
[2]
  LD50: 150 mg/kg

## CCN(CCNC(=O)c1cnc(C)nc1OC)CC1CCCCC1 [compound 780866]
[1]
  ED50: 4.7 mg/kg
[2]
  LD50: 120 mg/kg

## CCN1CCCC1CNC(=O)c1cncnc1OC (stereo not shown) [77.0807]
[1]
  ED50: 18.5 mg/kg
[2]
  LD50: 300 mg/kg

## CCN1CCCC1CNC(=O)c1cnc(C)nc1OC(C)C (stereo not shown) [compound 780561]
[1]
  ED50: 3.3 mg/kg
[2]
  LD50: 170 mg/kg

## COc1nc(N)ncc1C(=O)NC1CCN(Cc2ccccc2)C1 (stereo not shown) [77.0958]
[1]
  ED50: 1.5 mg/kg
[2]
  LD50: 150 mg/kg

## COc1nc(N)ncc1C(=O)NCCN(C)Cc1ccccc1 [77.0512, 1-[5-(2-amino 4-methoxypyrimidinyl)carboxamido] 2-[N-methyl N-benzylamino] ethane]
[1]
  ED50: 10 mg/kg
[2]
  LD50: 400 mg/kg

## CCCCN1CCCC1CNC(=O)c1cnc(C)nc1OC (stereo not shown) [compound 780457]
[1]
  ED50: 17 mg/kg
[2]
  LD50: 160 mg/kg

## COc1nc(C)ncc1C(=O)NCC1CCCN1Cc1ccccc1 (stereo not shown) [compound 780458]
[1]
  ED50: 13 mg/kg
[2]
  LD50: 140 mg/kg

## CCOc1nc(N)ncc1C(=O)NCC1CCCN1CC (stereo not shown) [77.0540]
[1]
  ED50: 3 mg/kg
[2]
  LD50: 150 mg/kg

## CCN1CCCC1CNC(=O)c1cnc(C(C)C)nc1OC (stereo not shown) [compound 780907]
[1]
  ED50: 10 mg/kg
[2]
  LD50: 120 mg/kg

## CCN(CCNC(=O)c1cnc(C)nc1OC)Cc1ccccc1 [compound 780327]
[1]
  ED50: 7 mg/kg
[2]
  LD50: 170 mg/kg

## CCN1CCCC1CNC(=O)c1cnc(SC)nc1OC (stereo not shown) [77.0840]
[1]
  ED50: 10 mg/kg
[2]
  LD50: 95 mg/kg

## COc1nc(N)ncc1C(=O)NC1CCN(Cc2ccc(F)cc2)C1 (stereo not shown) [compound 771274]
[1]
  ED50: 1.4 mg/kg
[2]
  LD50: 100 mg/kg

## CCN1CCCC1CNC(=O)c1cc(S(N)(=O)=O)ccc1OC (stereo not shown) [SULPIRIDE, Sulpiride, reference compound]
[1]
  ED50: 37 mg/kg

## COc1nc(N)ncc1C(=O)NCC1CCCN1C (stereo not shown) [compound 780079]
[1]
  ED50: 11 mg/kg
[2]
  LD50: 225 mg/kg

## COc1ncc(C(=O)NC2CCN(Cc3ccccc3)CC2)c(OC)n1 [77.1244]
[1]
  ED50: 10 mg/kg
[2]
  LD50: 180 mg/kg

Reference: patent publication US4250178A, “Amides derived from carboxyl-5 pyrimidines” (Delalande S.A., priority 1978, dated 1981)
